# Results reported in US20220087987A1, “A METHOD FOR TREATING SWI/SNF COMPLEX-DEFICIENT CANCERS COMPRISING GLUTATHIONE (GSH) METABOLIC PATHWAY INHIBITOR” (National Cancer Center, priority 2018, published 2022).
# Read-outs that look alike come from different tables or passages of the source.
# How the values were obtained:
# [1] = system: ARID1A-KO HCT116 cells; assay: Drug library screen, cell viability (CellTiter-Glo); format: cell-based, human
# Protocol: (§1) ARID1A-WT and ARID1A-KO HCT116 cancer cells were used for screening assays. […] Cell viability was assessed after 5 days using the CellTiter-Glo Luminescent Cell Viability Assay (Promega). Luminescence was measured using an Envision Multi-label plate reader (PerkinElmer). The luminescence reading was used to determine the cell viability relative to that of cells treated with solvent (DMSO). Candidate compounds were considered if viability of ARID1A-KO cells was less than […] was more than 80%.
# [2] = system: ARID1A-WT HCT116 cells; assay: as above; format: cell-based, human
# Protocol: as §1
# [3] = HCT116 ARID1A-KO, 10 μM for 5 days, relative to cells treated with solvent (DMSO)
# [4] = HCT116 ARID1A-WT, 10 μM for 5 days, relative to cells treated with solvent (DMSO)
SMILES,"Cell viability, KO [1, 3]","Cell viability, WT [2, 4]","Cell viability, KO [1]","Cell viability, WT [2]"
CCCC[C@@H](C)[C@@H](OC(=O)C[C@@H](CC(=O)O)C(=O)O)[C@H](C[C@@H](C)C[C@H](O)CCCC[C@@H](O)C[C@H](O)[C@H](C)N)OC(=O)C[C@@H](CC(=O)O)C(=O)O [Fumonisin B1],83.33,87.23,,
COc1ccc2c(c1)c1c3c(c4c5ccccc5n(C)c4c1n2CC(O)CN(C)C)C(=O)NC3=O (stereo not shown) [Go7874],4.256,3.01,,
CC1CNCCN1S(=O)(=O)c1cccc2cnccc12 (stereo not shown) [H-7],70.52,116.4721,,
O=S(=O)(NCCNC/C=C/c1ccc(Br)cc1)c1cccc2cnccc12 [H-89],119.4541,78.81,,
CCOC(=O)C1=C(N)Oc2ccc(Br)cc2C1C(C#N)C(=O)OCC (stereo not shown) [HA 14-1],119.1814,114.2556,,
CCCCN1C(=O)C2Cc3c([nH]c4ccccc34)C(c3cccc(O)c3)N2C1=O (stereo not shown) [HR22C16],17.39,12.52,,
CC(C)Cn1c(=O)n(C)c(=O)c2[nH]cnc21 [IBMX],114.2526,159.7152,,
O=Cc1ccc(N2CCOCC2)cc1O [IC60211],174.6736,131.0236,,
NC(=O)Nc1sc(-c2ccccc2)cc1C(N)=O [IKK-2 inhibitor VI],22.26,19.28,,
O=C(Nc1nc2ccccc2n1CCN1CCOCC1)c1cccc([N+](=O)[O-])c1 [IRAK-¼ inhibitor],160.7174,142.234,,
Cc1ccc2nc(NC(=O)CSc3nc4c(c(=O)n3-c3ccccc3)SCC4)sc2c1 [IWP-2],90.8,78.56,,
O=C(Nc1cccc2cccnc12)c1ccc(N2C(=O)[C@@H]3[C@H](C2=O)[C@@H]2C=C[C@H]3C2)cc1 [IWR-1-endo],75.98,76.34,,
CCOc1nc(NC(=O)Cc2cc(OC)ccc2OC)cc(N)c1C#N [JNK inhibitor VIII],189.4425,127.134,,
COc1ccc(S(=O)(=O)N(CCO)c2ccccc2CN(C)C/C=C/c2ccc(Cl)cc2)cc1 [KN93],23.47,20.89,,
CN([C@@H](Cc1ccc(OS(=O)(=O)c2cccc3cnccc23)cc1)C(=O)N1CCN(c2ccccc2)CC1)S(=O)(=O)c1cccc2cnccc12 [KN-62],,,131.0212,113.3229
COC(=O)[C@@]1(OC)C[C@H]2O[C@]1(C)n1c3ccccc3c3c4c(c5c6ccccc6n2c5c31)C(=O)N(C)C4 [KT 5823],111.294,102.1181,,
CNC(=N)NCCC[C@H](N)C(=O)O [L-NMMA],116.4094,167.9828,,
c1ccc2c(-c3cnn4cc(-c5ccc(N6CCNCC6)cc5)cnc34)ccnc2c1 [LDN193189],2.712,2.832,,
C/C(O)=C(\C#N)C(=O)Nc1cc(Br)ccc1Br [LFM-A13],106.7176,93.88,,
O=c1cc(N2CCOCC2)oc2c(-c3ccccc3)cccc12 [LY294002],119.3969,127.2893,,
Cc1cccc(-c2nn3c(c2-c2ccnc4ccc(C(N)=O)cc24)CCC3)n1 [LY2157299],113.5072,91.31,,
O=C1C(Nc2ccccc2)=CC(=O)c2ncccc21 [LY 83583],4.788,4.357,,
"CCC(=C/[C@H](C)C/C=C/C(C)=C/[C@@H](C)C(=O)[C@@H](C)[C@H](O)[C@@H](C)C/C(C)=C/C(=O)O)/C=C/[C@@H]1OC(=O)C=C[C@@H]1C [Leptomycin B*, Leptomycin B]",4.969,5.031,,
CC(C)c1ccc2c(c1)c(SC(C)(C)C)c(CC(C)(C)C(=O)O)n2Cc1ccc(Cl)cc1 [MK 886],112.1339,116.7328,,
O=S(=O)(c1cccc2c(I)cccc12)N1CCCNCC1 [ML-7],78.88,76.67,,
O=C(Nc1cccc(NC(=O)c2cccc(O)c2O)c1)c1cccc(O)c1O [MST-312],7.703,7.363,,
CCCC[C@@H](C)/C=C(C)/C=C(\C)C(=O)NC1=C[C@@](O)(/C=C/C=C/C=C/C(=O)NC2=C(O)CCC2=O)[C@@H]2O[C@@H]2C1=O [Manumycin A],52.57,61.22,,
"CCNCCCNCCCCNCCCNCC [N1,N12-Diethylspermine (BESpm), N1,N12-Diethylspermine]",37.8,32.23,,
O=C1C(SCCO)=C(SCCO)C(=O)c2ccccc21 [NSC95397],15.8033,41.93,,
